Source: patent US7262189B2, “Benzothiazine and benzothiadiazine derivatives, method for preparing same and pharmaceutical compositions containing same” (Les Laboratoires Server, priority 2001, dated 2007)
Like-named read-outs stand apart in the source and are kept apart here.

Tested on: AMPA receptors
Test: Excitatory fluxes induced by AMPA in Xenopus oocytes (2-electrode voltage-clamp)
Type: cell-based
Settings: Xenopus oocytes injected with rat cerebral cortex poly-(A+) mRNA, AMPA 10 μM
Protocol: Study of the Excitatory Fluxes Induced by AMPA in Xenopus oocytes
mRNAs are prepared from cerebral cortex of male Wistar rat by the guanidinium thiocyanate/phenol/chloroform method. The poly-(A^+) mRNAs are isolated by chromatography on oligo-dT cellulose and injected in an amount of 50 ng per oocyte. The oocytes are left to incubate for 2 to 3 days at 18° C. to allow expression of the receptors and are then stored at from 8 to 10° C.
Electrophysiological recording is carried out in a Plexiglass® chamber at from 20 to 24° C. in OR2 medium (J. Exp. Zool., 1973, 184, 321-334) by the 2-electrode “voltage-clamp” method, a 3rd electrode being placed in the bath to serve as reference.
All the compounds are administered via the incubation medium and the electric current is measured at the end of the period of administration. AMPA is used at a concentration of 10 μM. For each compound studied, the concentration that doubles (EC2×) or quintuples (EC5×) the intensity of the current induced by AMPA alone (5 to 50 nA) is determined.

SMILES: O=S1(=O)NC2CCCN2c2ccc(OC(=S)Oc3ccccc3)cc21 (centres unmarked) [Example 2, O-(5,5-Dioxido-2,3,3a,4-tetrahydro-1H-pyrrolo[2,1-c][1,2,4]-benzothiadiazin-7-yl)O-phenyl thiocarbonate]
- Concentration doubling (EC2×) or quintupling (EC5×) the AMPA current (read-out: EC2× (concentration that doubles the intensity of the current induced by AMPA alone)): 1.8 µM
- Concentration doubling (EC2×) or quintupling (EC5×) the AMPA current (read-out: EC5× (concentration that quintuples the intensity of the current induced by AMPA alone)): 9.6 µM
